# In US20250034159A1, “INHIBITORS OF EPIDERMAL GROWTH FACTOR RECEPTOR” (ORIC Pharmaceuticals, Inc., priority 2021, published 2025):
# Read-outs that look alike come from different tables or passages of the source.
# Tests used:
# [1] = target: recombinant human EGFR L858R/C797S double mutant protein (Homo sapiens (Human), UniProt P00533, C797S/L858R); test: Biological Activity Assay B: biochemical assay against EGFR L858R/C797S protein (EGFR LR/CS)
# Experimental: In Row A of a 384-well polypropylene plate, was added 48 μL of DMSO. In wells A1 and A24, were added 12 μL of DMSO. […] To a well in Row A were added 12 μL of each 10 mM test compound stock (100% DMSO). […] The final intermediate dilution plate contained 4×16-point compound serial dilutions in assay buffer. The DMSO concentration was 10%. The intermediate compound dilution plate was transferred to the Bravo and the “5 uL dispense into ARP.pro” protocol was run. To the black low volume assay ready plates, were added 5 μL of 40 uM Phosphosens peptide sensor/4 mM ATP working solution to each well. […] To column 24, was added 10 μL of assay buffer. The final DMSO concentration was 2.5%. […] The plates were sealed with the TopSeal-A Plus plate seals. […] Set for 90 cycles with 120 second interval. […] The slope of each curve was constructed using Dotmatics in each well, and each IC50s was calculated using a 4-parameter fit model.
# [2] = target: recombinant human EGFR exon 19 deletion/C797S double mutant protein (Homo sapiens (Human), UniProt P00533, C797S/DEL746-750); test: Biological Activity Assay C: biochemical assay against EGFR exon 19 deletion/C797S protein (EGFR d19/CS)
# Sequence of recombinant human EGFR exon 19 deletion/C797S double mutant protein (P00533 other isoform, or with tags, fused parts or gaps C797S/del 1-668/del 746-750 limits assumed): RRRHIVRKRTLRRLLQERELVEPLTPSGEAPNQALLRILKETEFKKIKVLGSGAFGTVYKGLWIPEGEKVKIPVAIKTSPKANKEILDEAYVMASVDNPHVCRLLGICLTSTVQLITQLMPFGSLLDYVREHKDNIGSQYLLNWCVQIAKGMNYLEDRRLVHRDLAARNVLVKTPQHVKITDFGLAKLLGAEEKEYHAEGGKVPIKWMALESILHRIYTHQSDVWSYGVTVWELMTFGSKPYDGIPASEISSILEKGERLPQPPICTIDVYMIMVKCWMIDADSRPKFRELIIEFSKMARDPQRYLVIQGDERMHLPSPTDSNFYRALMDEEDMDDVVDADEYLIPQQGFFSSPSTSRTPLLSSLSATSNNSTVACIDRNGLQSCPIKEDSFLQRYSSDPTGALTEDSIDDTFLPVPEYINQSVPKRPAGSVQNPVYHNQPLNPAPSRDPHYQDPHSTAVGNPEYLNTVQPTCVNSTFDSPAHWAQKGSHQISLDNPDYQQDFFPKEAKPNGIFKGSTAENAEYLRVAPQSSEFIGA
# Procedure, shortened: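 IC50 values were fitted with a 4-parameter model to reaction slopes taken from 90 kinetic reads spaced 120 s apart. The Phosphosens sensor/ATP working solution was 40 uM/4 mM, and compound was dosed as 16-point dilutions at 2.5% final DMSO.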
# Ba/F3_EGFR WT cells = test: Biological Activity Assay D: BaF3 cell proliferation assay, EGFR wild-type (BaF3 WT); format: cell-based; conditions: Ba/F3 EGFR, read-out: BaF3 WT IC50
# BaF3_EGFR LR/CS cells = test: Biological Activity Assay D: BaF3 cell proliferation assay, EGFR L858R/C797S mutant (BaF3 LR/CS); format: cell-based; conditions: Ba/F3 EGFR, read-out: BaF3 LR/CS IC50
# BaF3_EGFR d19/CS cells = test: Biological Activity Assay D: BaF3 cell proliferation assay, EGFR exon 19 deletion/C797S (BaF3 d19/CS); format: cell-based; conditions: Ba/F3 EGFR, read-out: BaF3 d19/CS IC50
# [3] = Ba/F3_EGFR WT cells, ~72 hours, CellTiter-Glo
# [4] = BaF3_EGFR LR/CS cells, ~72 hours, CellTiter-Glo
# [5] = BaF3_EGFR d19/CS cells, ~72 hours, CellTiter-Glo
# Sequence of recombinant human EGFR L858R/C797S double mutant protein (P00533 25-1210 C797S/L858R): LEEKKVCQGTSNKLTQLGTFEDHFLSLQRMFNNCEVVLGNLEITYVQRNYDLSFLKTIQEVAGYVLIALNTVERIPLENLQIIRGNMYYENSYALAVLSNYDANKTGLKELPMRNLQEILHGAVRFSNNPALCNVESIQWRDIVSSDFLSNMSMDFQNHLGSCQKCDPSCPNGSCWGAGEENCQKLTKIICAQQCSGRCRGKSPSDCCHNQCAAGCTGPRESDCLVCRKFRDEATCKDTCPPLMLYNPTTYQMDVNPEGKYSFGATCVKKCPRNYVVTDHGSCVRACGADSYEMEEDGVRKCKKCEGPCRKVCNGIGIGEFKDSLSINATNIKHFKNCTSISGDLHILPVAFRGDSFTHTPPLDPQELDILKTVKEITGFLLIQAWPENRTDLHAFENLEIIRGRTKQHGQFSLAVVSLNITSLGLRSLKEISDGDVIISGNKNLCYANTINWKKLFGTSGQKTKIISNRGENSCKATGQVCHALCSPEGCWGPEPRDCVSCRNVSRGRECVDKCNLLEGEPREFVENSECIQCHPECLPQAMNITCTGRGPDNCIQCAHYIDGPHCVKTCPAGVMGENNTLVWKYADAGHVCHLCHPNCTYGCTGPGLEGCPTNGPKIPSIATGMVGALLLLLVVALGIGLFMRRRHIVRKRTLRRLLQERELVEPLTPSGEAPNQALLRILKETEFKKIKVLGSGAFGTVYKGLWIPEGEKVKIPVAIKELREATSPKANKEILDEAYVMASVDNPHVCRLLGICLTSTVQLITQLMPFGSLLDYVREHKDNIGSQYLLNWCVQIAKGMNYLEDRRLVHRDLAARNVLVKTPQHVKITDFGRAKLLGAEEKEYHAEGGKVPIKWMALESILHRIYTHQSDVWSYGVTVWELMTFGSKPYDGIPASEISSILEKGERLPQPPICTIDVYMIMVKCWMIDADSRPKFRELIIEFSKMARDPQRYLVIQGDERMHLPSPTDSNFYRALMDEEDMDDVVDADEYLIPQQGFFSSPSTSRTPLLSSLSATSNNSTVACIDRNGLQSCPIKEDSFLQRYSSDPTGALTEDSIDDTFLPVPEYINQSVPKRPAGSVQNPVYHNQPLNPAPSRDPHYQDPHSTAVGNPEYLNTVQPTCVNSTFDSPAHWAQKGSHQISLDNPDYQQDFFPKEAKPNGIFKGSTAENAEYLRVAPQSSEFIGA
IC50 [1] [nM],IC50 [2] [nM],IC50 (Ba/F3_EGFR WT cells; [3]) [nM],IC50 (BaF3_EGFR LR/CS cells; [4]) [nM],IC50 (BaF3_EGFR d19/CS cells; [5]) [nM],Compound,IC50 (Ba/F3_EGFR WT cells; 72 h) [nM],IC50 (BaF3_EGFR LR/CS cells; 72 h) [nM],IC50 (BaF3_EGFR d19/CS cells; 72 h) [nM]
0.111,0.0769,88.4,1.29,1.22,"CN1CCN(c2ccc(-c3cc4c(-c5oc(CCCO)nc5-c5ccc(F)cc5)ccnc4[nH]3)cc2)CC1 [Example 29, 3-[4-(4-Fluorophenyl)-5-{2-[4-(4-methylpiperazin-1-yl)phenyl]-1H-pyrrolo[2,3-b]pyridin-4-yl}-1,3-oxazol-2-yl]propan-1-ol]",,,
1.72,1.88,4440,260,319,N#CCn1cc(-c2ncnc3oc(-c4ccccc4)cc23)c(-c2ccc(F)cc2)n1 [Example 30],,,
0.521,0.446,3320,97.9,66.5,"Fc1ccc(-c2nn(C3COC3)cc2-c2ncnc3oc(-c4ccccc4)cc23)cc1 [Example 31, 4-[3-(4-Fluorophenyl)-1-(oxetan-3-yl)-1H-pyrazol-4-yl]-6-phenylfuro[2,3-d]pyrimidine]",,,
1.36,1.26,4730,130,114,"Fc1ccc(-c2nn(CC3(F)COC3)cc2-c2ncnc3oc(-c4ccccc4)cc23)cc1 [Example 32, 4-{1-[(3-fluorooxetan-3-yl)methyl]-3-(4-fluorophenyl)-1H-pyrazol-4-yl}-6-phenylfuro[2,3-d]pyrimidine]",,,
0.212,0.119,38,1.16,1.08,"CN1CCN(c2ccc(-c3cc4c(-c5cn(CCCO)nc5-c5ccc(F)cc5)ncnc4o3)cc2)CC1 [Example 33, 3-[3-(4-Fluorophenyl)-4-{6-[4-(4-methylpiperazin-1-yl)phenyl]furo[2,3-d]pyrimidin-4-yl}-1H-pyrazol-1-yl]propan-1-ol]",,,
1.17,1.59,7780,225,122,"CC(C)(O)CCn1cc(-c2ncnc3oc(-c4ccccc4)cc23)c(-c2ccc(F)cc2)n1 [Example 34, 4-[3-(4-fluorophenyl)-4-(6-phenylfuro[2,3-d]pyrimidin-4-yl)-1H-pyrazol-1-yl]-2-methylbutan-2-ol]",,,
1.13,1.35,20000,209,339,"CNC(=O)CCc1nc(-c2ccc(F)cc2)c(-c2ncnc3oc(-c4ccccc4)cc23)o1 [Example 36, 3-[4-(4-fluorophenyl)-5-(6-phenylfuro[2,3-d]pyrimidin-4-yl)-1,3-oxazol-2-yl]-N-methylpropanamide]",,,
1.87,2.6,6280,318,514,"CN(C)C(=O)CCc1nc(-c2ccc(F)cc2)c(-c2ncnc3oc(-c4ccccc4)cc23)o1 [Example 37, 3-[4-(4-fluorophenyl)-5-(6-phenylfuro[2,3-d]pyrimidin-4-yl)-1,3-oxazol-2-yl]-N,N-dimethylpropanamide]",,,
0.434,0.856,2170,121,44.8,"CS(=O)(=O)CCn1cc(-c2ncnc3oc(-c4ccccc4)cc23)c(-c2ccc(F)cc2)n1 [Example 38, 4-{3-(4-Fluorophenyl)-1-[2-(methanesulfonyl)ethyl]-1H-pyrazol-4-yl}-6-phenylfuro[2,3-d]pyrimidine]",,,
6.14,5.19,1920,161,147,"CS(=O)(=O)n1cc(-c2ncnc3oc(-c4ccccc4)cc23)c(-c2ccc(F)cc2)n1 [Example 39, 4-[3-(4-fluorophenyl)-1-(methanesulfonyl)-1H-pyrazol-4-yl]-6-phenylfuro[2,3-d]pyrimidine]",,,
0.327,0.192,2100,36.4,22,"O=S1(=O)CC(n2cc(-c3ncnc4oc(-c5ccccc5)cc34)c(-c3ccc(F)cc3)n2)C1 [Example 40, 3-[3-(4-Fluorophenyl)-4-(6-phenylfuro[2,3-d]pyrimidin-4-yl)-1H-pyrazol-1-yl]-1λ6-thietane-1,1-dione]",,,
0.518,0.375,2390,61.6,34.7,"O=S1(=O)CCC(n2cc(-c3ncnc4oc(-c5ccccc5)cc34)c(-c3ccc(F)cc3)n2)C1 (centres unmarked) [Example 41, 3-[3-(4-fluorophenyl)-4-(6-phenylfuro[2,3-d]pyrimidin-4-yl)-1H-pyrazol-1-yl]-1λ6-thiolane-1,1-dione]",,,
0.527,0.335,2090,57.5,37.5,"O[C@H]1C[C@@H](Cn2cc(-c3ncnc4oc(-c5ccccc5)cc34)c(-c3ccc(F)cc3)n2)C1 [Example 42, (1s, 3s)-3-{[3-(4-Fluorophenyl)-4-(6-phenylfuro[2,3-d]pyrimidin-4-yl)-1H-pyrazol-1-yl]methyl}cyclobutan-1-ol]",,,
0.39,0.24,2240,73.2,40,"O[C@H]1C[C@H](Cn2cc(-c3ncnc4oc(-c5ccccc5)cc34)c(-c3ccc(F)cc3)n2)C1 [Example 43, (1r,3r)-3-{[3-(4-Fluorophenyl)-4-(6-phenylfuro[2,3-d]pyrimidin-4-yl)-1H-pyrazol-1-yl]methyl}cyclobutan-1-ol]",,,
2.76,1.79,6650,263,421,"CC(C)(O)CCc1nc(-c2ccc(F)cc2)c(-c2ncnc3oc(-c4ccccc4)cc23)o1 [Example 44, 4-[4-(4-fluorophenyl)-5-(6-phenylfuro[2,3-d]pyrimidin-4-yl)-1,3-oxazol-2-yl]-2-methylbutan-2-ol]",,,
1.12,1.51,2290,185,37.5,"Fc1ccc(-c2nn(CCCC(F)F)cc2-c2ncnc3oc(-c4ccccc4)cc23)cc1 [Example 45, 4-[1-(4,4-Difluorobutyl)-3-(4-fluorophenyl)-1H-pyrazol-4-yl]-6-phenylfuro[2,3-d]pyrimidine]",,,
0.389,0.317,2160,41.1,21.1,"CC(C)(O)Cn1cc(-c2ncnc3oc(-c4ccccc4)cc23)c(-c2ccc(F)cc2)n1 [Example 46, 1-[3-(4-Fluorophenyl)-4-(6-phenylfuro[2,3-d]pyrimidin-4-yl)-1H-pyrazol-1-yl]-2-methylpropan-2-ol]",,,
0.594,0.473,4530,92.5,72.5,"Fc1ccc(-c2nn(CC3COC3)cc2-c2ncnc3oc(-c4ccccc4)cc23)cc1 [Example 47, 4-{3-(4-Fluorophenyl)-1-[(oxetan-3-yl)methyl]-1H-pyrazol-4-yl}-6-phenylfuro[2,3-d]pyrimidine]",,,
3.42,1.77,20000,132,250,"NC(=O)CCc1nc(-c2ccc(F)cc2)c(-c2ncnc3oc(-c4ccccc4)cc23)o1 [Example 49, 3-[4-(4-fluorophenyl)-5-(6-phenylfuro[2,3-d]pyrimidin-4-yl)-1,3-oxazol-2-yl]propanamide]",,,
0.635,1.02,2080,241,59.1,"CN(C)S(=O)(=O)CCn1cc(-c2ncnc3oc(-c4ccccc4)cc23)c(-c2ccc(F)cc2)n1 [Example 50, 2-[3-(4-fluorophenyl)-4-(6-phenylfuro[2,3-d]pyrimidin-4-yl)-1H-pyrazol-1-yl]-N,N-dimethylethane-1-sulfonamide]",,,
17.1,27.2,10700,770,972,"CN(C)S(=O)(=O)n1cc(-c2ncnc3oc(-c4ccccc4)cc23)c(-c2ccc(F)cc2)n1 [Example 51, 3-(4-fluorophenyl)-N,N-dimethyl-4-(6-phenylfuro[2,3-d]pyrimidin-4-yl)-1H-pyrazole-1-sulfonamide]",,,

Compound,IC50 [1] [nM],IC50 [2] [nM],IC50 (Ba/F3_EGFR WT cells; [3]) [nM],IC50 (BaF3_EGFR LR/CS cells; [4]) [nM],IC50 (BaF3_EGFR d19/CS cells; [5]) [nM],IC50 (Ba/F3_EGFR WT cells; 72 h) [nM],IC50 (BaF3_EGFR LR/CS cells; 72 h) [nM],IC50 (BaF3_EGFR d19/CS cells; 72 h) [nM]
"OCCCc1nc(-c2ccc(F)cc2)c(-c2ncnc3oc(-c4ccccc4)cc23)o1 [Example 35, 3-[4-(4-Fluorophenyl)-5-(6-phenylfuro[2,3-d]pyrimidin-4-yl)-1,3-oxazol-2-yl]propan-1-ol]",0.958,0.54,,,,5950,134,185
